Activity calls are given as the source filed them. The calls are words filed in the database; no cut-off is given here.
Assays:
Cytochrome P450 3A4 [1] = biological target: T1, Cytochrome P450 3A4 (Homo sapiens, UniProt P08684); test: Inhibition of CYP3A4 (unknown origin); assay type: ADME
[2] = biological target: Voltage-dependent L-type calcium channel subunit alpha-1C (Homo sapiens, UniProt Q13936); test: Inhibition of Cav1.2 (unknown origin)
Rattus norvegicus [3] = test: Antihypertensive activity in rat spontaneous hypertensive model assessed as induction of diuresis at 3 mg/kg, po qd measured after 3 days; assay type: functional, organism-based
[4] = Unbound fraction in guinea pig plasma at 7 mg/kg administered as iv infusion; assay type: ADME, organism-based, Cavia porcellus; settings: in vivo
[5] = biological target: T2, ATP-sensitive inward rectifier potassium channel 1 (Homo sapiens, UniProt P48048); test: Inhibition of human ROMK expressed in CHO cells at -70 mV holding potential after 6 mins by whole cell patch clamp Qpatch method; assay type: cell-based
T2 sequence (P48048 whole entry): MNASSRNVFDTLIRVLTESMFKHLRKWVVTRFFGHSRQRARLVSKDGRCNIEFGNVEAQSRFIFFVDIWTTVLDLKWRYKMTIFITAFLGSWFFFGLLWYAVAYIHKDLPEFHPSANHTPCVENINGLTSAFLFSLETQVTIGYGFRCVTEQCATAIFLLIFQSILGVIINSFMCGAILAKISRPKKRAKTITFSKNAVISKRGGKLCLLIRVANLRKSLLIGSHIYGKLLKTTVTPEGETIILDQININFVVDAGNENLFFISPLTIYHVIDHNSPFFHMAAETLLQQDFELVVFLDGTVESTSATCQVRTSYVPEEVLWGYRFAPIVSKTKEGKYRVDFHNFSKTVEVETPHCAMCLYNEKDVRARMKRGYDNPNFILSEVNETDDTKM

[6] = Unbound fraction in guinea pig plasma at 10 mg/kg administered as iv infusion; assay type: ADME, organism-based, Cavia porcellus; settings: in vivo
Cavia porcellus [7] = test: Cardiotoxicity in anesthetized cardiovascular guinea pig model assessed as prolongation of QTc interval at 7 mg/kg administered as iv infusion relative to control; assay type: toxicity, organism-based; settings: in vivo
[8] = Volume of distribution at steady state in Beagle dog at 1 mg/kg, iv; assay type: ADME, organism-based, Canis lupus familiaris; settings: in vivo, read-out: Vdss
Rattus norvegicus [9] = species on record: Rattus norvegicus; settings: in vivo, po, 2 mg/kg
[10] = Fraction unbound in dog plasma; assay type: ADME, cell-free, Canis lupus familiaris
[11] = Fraction unbound in human plasma; assay type: ADME, cell-free
Rattus norvegicus [12] = test: Antihypertensive activity in rat spontaneous hypertensive model assessed as change in systolic blood pressure at 3 mg/kg, po qd measured after 3 days; assay type: functional
Homo sapiens = species on record: Homo sapiens; test: Unbound Cmax in human; assay type: ADME
[13] = Volume of distribution at steady state in Wistar Han rat at 1 mg/kg, iv or 2 mg/kg, po; settings: in vivo
Cytochrome P450 3A4 [14] = biological target: T1, Cytochrome P450 3A4; test: Time dependent inhibition of CYP3A4 (unknown origin) in presence of NADPH; assay type: ADME
[15] = biological target: Sodium-dependent serotonin transporter (Homo sapiens, UniProt P31645); test: Inhibition of human SERT
[16] = Unbound fraction in guinea pig plasma at 3 mg/kg administered as iv infusion; assay type: ADME, organism-based, Cavia porcellus; settings: in vivo
[17] = biological target: Sodium channel protein type 5 subunit alpha (Homo sapiens, UniProt Q14524); test: Inhibition of Nav1.5 (unknown origin)
Cavia porcellus [18] = test: Cardiotoxicity in anesthetized cardiovascular guinea pig model assessed as prolongation of QTc interval at 3 mg/kg administered as iv infusion relative to control; assay type: toxicity, organism-based; settings: in vivo
Cytochrome P450 2C8 = biological target: T3, Cytochrome P450 2C8 (Homo sapiens, UniProt P10632); test: Inhibition of CYP2C8 (unknown origin); assay type: ADME
T3 sequence (P10632 whole entry): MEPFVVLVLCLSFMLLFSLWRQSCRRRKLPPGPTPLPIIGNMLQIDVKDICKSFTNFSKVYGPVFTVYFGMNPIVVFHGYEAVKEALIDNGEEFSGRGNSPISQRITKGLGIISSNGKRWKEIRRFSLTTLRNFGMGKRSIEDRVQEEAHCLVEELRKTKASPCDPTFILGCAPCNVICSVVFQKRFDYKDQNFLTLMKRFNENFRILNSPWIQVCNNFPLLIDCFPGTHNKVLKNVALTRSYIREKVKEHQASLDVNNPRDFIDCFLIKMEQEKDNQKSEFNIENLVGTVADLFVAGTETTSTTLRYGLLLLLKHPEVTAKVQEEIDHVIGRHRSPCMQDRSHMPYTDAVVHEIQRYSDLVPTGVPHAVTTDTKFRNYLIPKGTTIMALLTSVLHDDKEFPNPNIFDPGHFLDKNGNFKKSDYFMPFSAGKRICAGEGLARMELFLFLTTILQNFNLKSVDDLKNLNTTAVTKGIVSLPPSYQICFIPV

Cytochrome P450 2D6 = Cytochrome P450 2D6 (Homo sapiens, UniProt P10635); test: Inhibition of CYP2D6 (unknown origin); assay type: ADME
[19] = biological target: T4, ATP-sensitive inward rectifier potassium channel 1 (Rattus norvegicus, UniProt P35560); test: Inhibition of rat ROMK expressed in HEK293 cells after 30 mins by FLIPR based thallium flux assay; assay type: cell-based
T4 sequence (P35560 whole entry): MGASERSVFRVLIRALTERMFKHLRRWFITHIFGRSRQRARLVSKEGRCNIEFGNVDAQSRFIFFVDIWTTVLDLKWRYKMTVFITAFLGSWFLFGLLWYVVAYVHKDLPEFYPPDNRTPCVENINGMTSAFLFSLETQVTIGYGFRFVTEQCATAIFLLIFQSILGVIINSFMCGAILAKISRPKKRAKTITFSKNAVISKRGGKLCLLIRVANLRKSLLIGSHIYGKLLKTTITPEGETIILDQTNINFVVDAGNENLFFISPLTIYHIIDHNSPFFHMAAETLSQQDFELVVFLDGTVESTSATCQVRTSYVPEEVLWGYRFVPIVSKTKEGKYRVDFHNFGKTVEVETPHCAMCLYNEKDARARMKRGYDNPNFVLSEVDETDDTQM

Cavia porcellus [20] = test: Cardiotoxicity in anesthetized cardiovascular guinea pig model assessed as prolongation of QTc interval at 10 mg/kg administered as iv infusion relative to control; assay type: toxicity, organism-based; settings: in vivo
Rattus norvegicus [21] = test: Antihypertensive activity in rat spontaneous hypertensive model assessed as induction of natriuresis at 3 mg/kg, po qd measured after 3 days; assay type: functional, organism-based
Cavia porcellus [22] = test: Cardiotoxicity in anesthetized cardiovascular guinea pig model assessed as prolongation of QTc interval administered as iv infusion; assay type: toxicity, organism-based; settings: in vivo

T1 sequence (P08684 whole entry): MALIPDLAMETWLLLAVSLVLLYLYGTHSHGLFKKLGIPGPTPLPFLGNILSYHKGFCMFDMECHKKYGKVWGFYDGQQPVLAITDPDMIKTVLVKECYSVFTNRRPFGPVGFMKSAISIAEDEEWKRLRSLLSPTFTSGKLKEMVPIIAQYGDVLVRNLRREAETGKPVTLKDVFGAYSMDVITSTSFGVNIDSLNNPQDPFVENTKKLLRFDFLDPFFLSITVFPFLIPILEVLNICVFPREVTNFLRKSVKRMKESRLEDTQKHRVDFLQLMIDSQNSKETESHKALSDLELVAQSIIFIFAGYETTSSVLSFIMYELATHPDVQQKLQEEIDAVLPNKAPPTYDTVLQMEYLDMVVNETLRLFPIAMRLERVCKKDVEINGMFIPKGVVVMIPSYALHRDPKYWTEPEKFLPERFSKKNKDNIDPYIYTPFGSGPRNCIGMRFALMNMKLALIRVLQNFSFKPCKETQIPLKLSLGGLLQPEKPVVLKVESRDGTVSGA
Sodium-dependent serotonin transporter, sequence (P31645 whole entry, the tested form may be a part): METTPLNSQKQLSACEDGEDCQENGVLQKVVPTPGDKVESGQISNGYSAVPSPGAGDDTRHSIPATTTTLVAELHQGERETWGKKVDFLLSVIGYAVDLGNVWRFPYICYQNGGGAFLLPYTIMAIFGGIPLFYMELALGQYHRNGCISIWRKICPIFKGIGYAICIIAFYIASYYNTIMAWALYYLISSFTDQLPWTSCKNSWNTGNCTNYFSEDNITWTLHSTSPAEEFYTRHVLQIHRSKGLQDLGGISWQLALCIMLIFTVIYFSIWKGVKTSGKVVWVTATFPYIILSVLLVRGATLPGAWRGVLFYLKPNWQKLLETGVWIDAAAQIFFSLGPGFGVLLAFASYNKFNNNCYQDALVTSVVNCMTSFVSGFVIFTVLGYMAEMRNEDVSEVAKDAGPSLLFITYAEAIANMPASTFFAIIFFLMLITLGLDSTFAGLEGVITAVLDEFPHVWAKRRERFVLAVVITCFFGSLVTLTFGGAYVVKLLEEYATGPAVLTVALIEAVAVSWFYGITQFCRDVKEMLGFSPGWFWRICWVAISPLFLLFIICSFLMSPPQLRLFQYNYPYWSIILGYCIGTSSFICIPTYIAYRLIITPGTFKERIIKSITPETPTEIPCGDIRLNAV
Voltage-dependent L-type calcium channel subunit alpha-1C, sequence (Q13936 whole entry): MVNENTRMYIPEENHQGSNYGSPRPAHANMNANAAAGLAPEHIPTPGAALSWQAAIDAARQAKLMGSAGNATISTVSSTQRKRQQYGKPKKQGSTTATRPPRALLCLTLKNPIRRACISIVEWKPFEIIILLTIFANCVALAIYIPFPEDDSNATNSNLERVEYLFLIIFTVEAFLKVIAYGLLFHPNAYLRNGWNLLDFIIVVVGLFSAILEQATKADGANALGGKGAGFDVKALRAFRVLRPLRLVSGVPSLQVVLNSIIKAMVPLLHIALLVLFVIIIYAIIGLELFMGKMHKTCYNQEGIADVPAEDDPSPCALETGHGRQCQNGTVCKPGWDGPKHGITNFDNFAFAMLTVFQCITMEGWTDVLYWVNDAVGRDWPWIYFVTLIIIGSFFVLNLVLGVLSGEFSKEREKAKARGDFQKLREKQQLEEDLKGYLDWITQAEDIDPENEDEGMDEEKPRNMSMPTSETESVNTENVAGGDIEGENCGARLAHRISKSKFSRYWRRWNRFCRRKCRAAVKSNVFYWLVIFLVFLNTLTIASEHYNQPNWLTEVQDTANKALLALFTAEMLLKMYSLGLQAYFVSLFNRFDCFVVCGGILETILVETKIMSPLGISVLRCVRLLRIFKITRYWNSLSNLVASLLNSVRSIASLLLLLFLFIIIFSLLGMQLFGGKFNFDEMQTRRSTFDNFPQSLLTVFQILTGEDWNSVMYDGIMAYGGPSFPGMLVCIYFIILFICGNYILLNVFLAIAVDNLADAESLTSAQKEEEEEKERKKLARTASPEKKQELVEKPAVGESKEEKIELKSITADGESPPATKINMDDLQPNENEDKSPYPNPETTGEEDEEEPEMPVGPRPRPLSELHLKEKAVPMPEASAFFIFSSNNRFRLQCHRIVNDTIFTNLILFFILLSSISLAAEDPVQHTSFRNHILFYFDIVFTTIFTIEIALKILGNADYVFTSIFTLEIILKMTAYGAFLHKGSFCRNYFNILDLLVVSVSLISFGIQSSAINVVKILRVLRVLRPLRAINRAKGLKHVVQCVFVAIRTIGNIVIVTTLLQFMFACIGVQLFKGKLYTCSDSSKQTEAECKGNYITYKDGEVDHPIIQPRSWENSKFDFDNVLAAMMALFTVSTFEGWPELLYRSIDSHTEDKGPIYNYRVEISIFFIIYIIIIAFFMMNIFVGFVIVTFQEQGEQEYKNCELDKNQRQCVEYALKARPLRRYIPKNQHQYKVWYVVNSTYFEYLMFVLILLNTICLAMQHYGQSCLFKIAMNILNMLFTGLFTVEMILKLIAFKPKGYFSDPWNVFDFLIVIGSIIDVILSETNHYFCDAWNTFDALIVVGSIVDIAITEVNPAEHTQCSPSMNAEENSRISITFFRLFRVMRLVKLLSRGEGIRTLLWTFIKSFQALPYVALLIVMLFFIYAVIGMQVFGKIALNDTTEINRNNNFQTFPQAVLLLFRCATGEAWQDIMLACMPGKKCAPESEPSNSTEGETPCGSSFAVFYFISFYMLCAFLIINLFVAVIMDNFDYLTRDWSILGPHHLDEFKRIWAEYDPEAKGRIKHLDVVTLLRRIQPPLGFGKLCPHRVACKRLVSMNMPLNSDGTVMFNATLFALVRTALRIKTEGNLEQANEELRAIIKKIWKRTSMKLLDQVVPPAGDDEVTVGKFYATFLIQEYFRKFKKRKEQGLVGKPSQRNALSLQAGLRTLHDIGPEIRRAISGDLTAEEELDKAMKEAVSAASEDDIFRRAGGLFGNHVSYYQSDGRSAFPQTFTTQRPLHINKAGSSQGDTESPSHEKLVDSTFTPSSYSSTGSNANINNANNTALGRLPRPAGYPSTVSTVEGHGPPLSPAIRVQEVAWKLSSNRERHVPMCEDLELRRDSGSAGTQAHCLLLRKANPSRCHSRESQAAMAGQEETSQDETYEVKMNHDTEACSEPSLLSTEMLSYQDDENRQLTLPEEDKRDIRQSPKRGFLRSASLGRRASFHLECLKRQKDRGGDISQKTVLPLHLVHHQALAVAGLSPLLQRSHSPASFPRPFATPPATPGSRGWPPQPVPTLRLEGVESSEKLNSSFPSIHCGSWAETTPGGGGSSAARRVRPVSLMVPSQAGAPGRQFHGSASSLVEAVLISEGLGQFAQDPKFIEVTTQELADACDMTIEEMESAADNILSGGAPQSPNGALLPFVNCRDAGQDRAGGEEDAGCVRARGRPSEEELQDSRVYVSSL
Cytochrome P450 2D6, sequence (P10635 whole entry): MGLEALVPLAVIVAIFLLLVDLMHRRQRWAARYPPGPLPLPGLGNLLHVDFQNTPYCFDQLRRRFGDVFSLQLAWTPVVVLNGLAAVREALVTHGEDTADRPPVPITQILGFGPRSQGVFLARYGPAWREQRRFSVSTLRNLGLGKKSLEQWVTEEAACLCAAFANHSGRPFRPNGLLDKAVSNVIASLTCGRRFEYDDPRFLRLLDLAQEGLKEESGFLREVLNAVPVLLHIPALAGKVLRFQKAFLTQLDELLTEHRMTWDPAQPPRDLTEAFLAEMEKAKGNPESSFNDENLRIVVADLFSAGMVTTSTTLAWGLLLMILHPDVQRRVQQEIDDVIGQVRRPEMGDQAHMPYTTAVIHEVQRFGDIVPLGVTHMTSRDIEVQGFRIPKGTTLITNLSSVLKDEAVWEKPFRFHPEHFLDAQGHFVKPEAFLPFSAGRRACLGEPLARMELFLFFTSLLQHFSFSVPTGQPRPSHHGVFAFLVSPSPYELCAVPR

IC50 (Cytochrome P450 3A4 [1]): > 50 µM | Cp(f) [4]: 13.5 µM | IC50 [5]: 0.017 µM | Cp(f) [6]: 22.5 µM | Vd [8]: 5 L/kg | AUC/dose (Rattus norvegicus [9]): 1.2 µM·kg·h/mg | fraction unbound [10]: 0.405 | fraction unbound [11]: 0.456 | fCmax (Homo sapiens): 0.12 µM | Vd [13]: 3.3 L/kg | IC50 (Cytochrome P450 3A4 [14]): > 50 µM | IC50 [15]: 10.4 µM | Cp(f) [16]: 5.3 µM | IC50 (Cytochrome P450 2C8): > 50 µM | IC50 (Cytochrome P450 2D6): > 50 µM | IC50 [19]: 0.038 µM
SMILES: Cc1c([C@@H](O)CN2CCC3(CC2)CCN(c2ccc(=O)n(C)n2)C3=O)ccc2c1COC2=O
IC50 [2]: > 30 µM | Activity (Rattus norvegicus [3]): Active | Activity (Cavia porcellus [7]): 12% | Activity (Rattus norvegicus [12]): -14 mmHg | IC50 [17]: > 30 µM | Activity (Cavia porcellus [18]): 9% | Activity (Cavia porcellus [20]): 16% | Activity (Rattus norvegicus [21]): Active | Activity (Cavia porcellus [22]): Dose-dependent effect

Reference: ChEMBL document CHEMBL4028831, “Improvement of hERG-ROMK index of spirocyclic ROMK inhibitors through scaffold optimization and incorporation of novel pharmacophores” (Bioorg Med Chem Lett, 2017)
